Measured values from paper PMC10459044, “Anticholinesterase and Serotoninergic Evaluation of Benzimidazole–Carboxamides as Potential Multifunctional Agents for the Treatment of Alzheimer’s Disease” (Pharmaceutics, 2023).
Entries after “also recorded” stand apart in the source; their conditions may differ. Where two headings read alike, the source gives them in different places.

Legend:
[1] = target: T1, human AChE (Homo sapiens, UniProt P22303); test: biochemical; type: biochemical; settings: for Type of Inhibition / thermodynamic cooperativity factor α: human AChE; for Type of Inhibition: Lineweaver–Burk plots; for thermodynamic cooperativity factor α: mixed inhibition model
T1 construct: human erythrocyte AChE (Biomed, Auckland, New Zealand); purchased Biomed, Auckland, New Zealand; host or cells: human erythrocytes (natural source)
T1 sequence (P22303 32-617 isoform P22303-2 limits assumed): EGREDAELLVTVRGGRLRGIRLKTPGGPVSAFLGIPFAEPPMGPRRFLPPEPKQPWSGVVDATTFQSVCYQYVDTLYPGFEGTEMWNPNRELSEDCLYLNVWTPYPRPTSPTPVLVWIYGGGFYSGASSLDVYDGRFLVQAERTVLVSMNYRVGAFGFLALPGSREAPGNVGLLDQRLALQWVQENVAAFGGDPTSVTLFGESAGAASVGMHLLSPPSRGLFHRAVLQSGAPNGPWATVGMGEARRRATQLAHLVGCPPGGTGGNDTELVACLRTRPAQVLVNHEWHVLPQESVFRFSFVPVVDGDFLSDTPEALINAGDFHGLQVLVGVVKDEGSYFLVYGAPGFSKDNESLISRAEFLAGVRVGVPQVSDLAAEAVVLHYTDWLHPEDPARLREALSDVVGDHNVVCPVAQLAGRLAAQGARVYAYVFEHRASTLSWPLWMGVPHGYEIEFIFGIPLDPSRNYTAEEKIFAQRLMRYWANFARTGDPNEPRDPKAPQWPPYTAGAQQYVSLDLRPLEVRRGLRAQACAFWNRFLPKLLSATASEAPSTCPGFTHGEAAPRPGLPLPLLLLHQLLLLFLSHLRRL
Procedure: (§1) The biochemical analysis of the inhibitory ability of the drugs against AChE and BChE was performed using a microplate modification of the Ellman method. The following reagents were used: 5,5′-dithio-bis-2-nitrobenzoic acid (DTNB, Sigma-Aldrich, St. Louis, MO, USA), acetylthiocholine (ATCh, Sigma-Aldrich), butyrylthiocholine (BTCh, Sigma-Aldrich), human erythrocyte AChE (Biomed, Auckland, New Zealand), human plasma BChE (Mechnikov Scientific Research Institute of Vaccines and Serums, St. Petersburg, Russia), phosphate-buffered saline (PBS; pH 7.2; Biolot, […]) and distilled water (pH 5.97, Biolot).
(§2) AChE and BChE were dissolved in PBS to obtain solutions of 1 mg/mL. Due to its high activity, human BChE was used at a 1:30 dilution. Solutions of the studied compounds were prepared with serial dilutions; their concentration in the reaction mixture was in a range from 0 to 300 μM. Double-distilled water, ethanol and dimethyl sulfoxide (DMSO, up to 15% of the total solvent volume) were used as solvents. When using DMSO or ethanol, an additional control was performed to assess the effect of the solvent itself. Protein (AChE of BChE) was incubated for 5 min at 37 °C and then the coloring solution was added, which contained a 2 mM freshly prepared DTNB solution and the substrate (ATCh/BTCh) in the concentration range of 200–800 μM. The kinetics were recorded for 15 min at 37 °C at a wavelength of 405 nm. Activity (μM × min^−1) was calculated using the molar extinction coefficient 0.01415 μmol^−1 × cm^−1: (V/ε × l × v) × (ΔE/Δt), where V is the volume of the analyzed mixture (μL); v is the volume of the enzyme solution (μL); ΔE/Δt is the change in extinction in 1 min; l is the thickness of the absorbing layer (cm); and ε is the coefficient of molar extinction of […]. Each measurement was repeated three times.
(§3) The type of inhibition was evaluated using Lineweaver–Burk plots. The dissociation constant of the enzyme-inhibitor complex (Ki), the maximum rate (Vmax) and thermodynamic cooperativity factor α were calculated using the Graphpad Prism 8.0 program (GraphPad Software Inc., San Diego, CA, USA) according to the model “enzymatic kinetics-inhibition—type of inhibition”.

[2] = target: T2, human BChE (Homo sapiens, UniProt P06276); test: Inhibition of human plasma BChE, microplate Ellman method; type: biochemical; settings: for Type of Inhibition: human BChE, Lineweaver–Burk plots; for Ki: human plasma BChE (1:30 dilution), BTCh substrate, 37 °C
T2 construct: human plasma BChE (Mechnikov Scientific Research Institute of Vaccines and Serums, St. Petersburg, Russia); purchased Mechnikov Scientific Research Institute of Vaccines and Serums, St. Petersburg, Russia; host or cells: human plasma (natural source)
T2 sequence (P06276 29-602): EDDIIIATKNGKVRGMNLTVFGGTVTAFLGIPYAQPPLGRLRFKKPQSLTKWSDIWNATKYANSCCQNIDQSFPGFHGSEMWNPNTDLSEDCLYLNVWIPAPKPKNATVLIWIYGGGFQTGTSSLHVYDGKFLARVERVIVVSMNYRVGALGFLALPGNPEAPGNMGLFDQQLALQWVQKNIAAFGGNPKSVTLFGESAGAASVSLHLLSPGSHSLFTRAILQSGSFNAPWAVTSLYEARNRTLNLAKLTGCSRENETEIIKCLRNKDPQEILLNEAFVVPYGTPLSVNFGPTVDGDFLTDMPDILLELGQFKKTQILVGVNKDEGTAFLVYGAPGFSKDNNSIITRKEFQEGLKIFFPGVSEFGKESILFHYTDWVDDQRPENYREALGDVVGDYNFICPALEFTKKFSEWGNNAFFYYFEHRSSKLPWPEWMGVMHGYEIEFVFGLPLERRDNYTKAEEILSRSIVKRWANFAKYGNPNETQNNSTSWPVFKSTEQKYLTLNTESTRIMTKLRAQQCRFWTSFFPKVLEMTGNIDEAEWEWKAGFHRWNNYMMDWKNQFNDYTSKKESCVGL
Procedure: as §1, §2, §3

[3] = system: 5-HT4R; settings: read-out: EC50 relative to 5-HT4R; cited from earlier work
[4] = human erythrocyte AChE, ATCh substrate, 37 °C, read-out: Ki

Row | Compound | Ki [1] | AChE inhibition less effective than compound 24 (ratio of Ki) ([1]; compound 13 vs compound 24) | Type of Inhibition [1] | Type of Inhibition [2] | Ki ([2]; read-out: Ki) | thermodynamic cooperativity factor α [1] | Ki [1, 4] | EC50 [3] | Ki [2]
1 | CCN(CC)CCNC(=O)n1c(=O)n(C(C)(C)C)c2ccccc21.Cl [Compound 13, N-[2-(diethylamino)ethyl]-2-oxo-3-(tert-butyl)-2,3-dihydro-1H-benzimidazole-1-carboxamide hydrochloride] | 36.1 µM | ~300 times | strictly competitive | non-competitive | 1.7 µM | – | – | – | –
2 | CC(C)n1c(=O)n(C(=O)NC2CC3CCC(C2)N3C)c2ccccc21 (stereo not drawn) [Compound 15, reference compound] | – | – | mixed | competitive | 9.7 µM | 6.6 | 127 µM | 0.018 µM | –
3 | CC(C)n1c(=O)n(C(=O)NC2CC3CCC(C2)N3C)c2cc(C(F)(F)F)ccc21 (stereo not drawn) [Compound 16] | – | – | mixed | competitive | 21.3 µM | 5.1 | 31 µM | – | –
4 | CCN(CC)CCNC(=O)n1c(=O)n(C(C)C)c2ccccc21 [Compound 22] | – | – | strictly competitive | competitive | 15.2 µM | – | 97.1 µM | – | –
5 | CCN(CC)CCNC(=O)n1c(=O)n(C(C)C)c2ccc(C(F)(F)F)cc21 [Compound 23] | – | – | mixed | non-competitive | 4.5 µM | 3.1 | 60.5 µM | – | –
6 | CC(C)n1c(=O)n(C(=O)N2CCN(C(c3ccccc3)c3ccc(Cl)cc3)CC2)c2ccccc21 (stereo not drawn) [Compound 24] | – | – | non-competitive | no inhibition | – | – | 0.13 µM | – | no inhibitory effect; also recorded: did not demonstrate inhibitory properties; also recorded: no inhibition
7 | CCN(CC)CCNC(=O)n1c(=O)n(C2CC2)c2ccccc21 [Compound 27] | – | – | mixed | competitive | 16.2 µM | 10.9 | 132 µM | – | –
8 | CN(C)CCNC(=O)n1c(=O)n(C2CC2)c2ccccc21 [Compound 28] | – | – | mixed | non-competitive | 28.1 µM | 12.6 | 138 µM | – | –
